Counter-ions that a name gives are not always drawn.
Columns and labels:
[1] = Healing effect on chemically induced ulceration (acetic acid); type: in vivo, rats; details: 100 mg/kg per os twice daily, days 1-10; day 11; vs untreated control
Procedure: Ulceration was induced by injecting 30% acetic acid into the stomach of the animals on day zero. From day one onwards to day 10 the animals were treated twice daily with the protective compound (100 mg/kg; per os). On day 11 the extent of gastric damage was determined.

[2] = Gastric damage (HCl - Gastrin ulcer) caused by tetragastrin; type: in vivo, rats; details: 100 mg/kg/treatment per os twice daily, days 1-14; tetragastrin 100 μg/kg/day i.p.; day 15; vs untreated control
Procedure: Each animal was treated with hydrochloric acid (0,2 ml of a 20% solution; per os) on day zero. From day one onwards to day 14 the animals were treated once daily with tetragastrin (100 μg/kg/day; intraperitoneal injection) and twice daily with the protective compound (100 mg/kg/treatment; per os in tragacanth). On day 15 the extent of gastric damage was determined.

[3] = Healing effect on thermally induced ulceration; type: in vivo, rats; details: 100 mg/kg per os twice daily, days 1-13; day 14; vs untreated control
Procedure: Thermal stomach ulceration was induced on day zero by means of a heated (75° C.) stainless steel stamp (5 mm in diameter). From day one onwards to day 13 the animals were treated twice daily with oleanolic acid (100 mg/kg; per os in tragacanth). On day 14 the animals were examined for the extent of gastric damage.

[4] = Analgesic effect of aspirin in the presence of oleanolic acid; type: in vivo, rats; details: Rattus norvegicus, read-out: ED50 (analgesic effect)
Procedure: The analgesic effect of the compound was tested in oral application to rats. 45 Minutes after application of the compound, the rats received an intraperitoneal injection of 1.0 ml 1% acetic acid. This causes a series of characteristic spasms in the untreated control animals. Analgesic effects are indicated by the reduction of the frequency of these spasms. The following results were obtained with the compound:
Measurement of the analgesic effect of the test compounds was done as set out in Test 1. The ED50 was computed for the various treatments as follows: […]

[5] = Antithrombotic effect: pulmonary thrombo-embolism in animals treated with arachnidoic acid; type: in vivo; details: for effect on occurrence of pulmonary thrombo-embolism: animals treated with arachnidoic acid
Source text: Oleanolic acid has no effect in this regard.

[6] = Activity against stress induced ulcers; type: in vivo; details: 100 mg/kg, rats, 24 h plaster bandage; drug 1 h before and 6 h after
Procedure: The effect of compounds on this formation of stress ulcers is assessed by applying the drugs 1 hour before encasing the animals in the bandage and again 6 hours after encasing the animals. After 24 hours, the bandage is removed and gastric damage is assessed compared to that of untreated animals.

[7] = oral; British Pat. No. 1,251,976, Example 10; cited from earlier work
[8] = Effect on gastric damage caused by aspirin; type: in vivo, rats; details: aspirin approximately 550 mg/kg
Procedure: (§1) Gastric damage caused by irritant substances (e.g. aspirin, indomethacin or other acidic analgesic/anti-inflammatory drugs) is assessed by applying a suitable dose of the protective compound followed later by a relatively high dose of the irritant (in the case of aspirin, approximately 550 mg/kg). After a further 5 hours, the extent of gastric damage is determined.

mice [9] = test: Acute toxicity of oleanolic acid; type: in vivo; details: oral route
[10] = Gastric damage caused by reserpine; type: in vivo, rats; details: 100 mg/kg per os; reserpine 6 mg/kg s.c.; after 16 hours; vs untreated control
Procedure: The animals were treated with oleanolic acid (per os; tragacanth vehicle) and directly thereafter with reserpine (6 mg/kg; subcutaneous injection). After 16 hours the extent of gastic damage was determined.

[11] = Effect on gastric damage caused by indomethacin; type: in vivo, rats
Procedure: as §1

[12] = mice; Shibata 1981, p. 65; cited from earlier work
[13] = Analgesic activity (acetic acid induced spasms); type: in vivo; details: rats; for Average No. of spasms (25 mins): untreated control 43.75
Procedure: The analgesic effect of the compound was tested in oral application to rats. 45 Minutes after application of the compound, the rats received an intraperitoneal injection of 1.0 ml 1% acetic acid. This causes a series of characteristic spasms in the untreated control animals. Analgesic effects are indicated by the reduction of the frequency of these spasms. The following results were obtained with the compound: […]

mice [14] = test: Acute toxicity of aspirin with and without oleanolic acid; type: in vivo; details: oral, males, mixture 1:1 mass ratio
[15] = as above; type: in vivo; details: mouse, in vivo, po, mice, mixture 1:1 mass ratio
[16] = Anti-inflammatory effect: carrageenan induced rat paw oedema; type: in vivo
Procedure: The compounds (aspirin and oleanolic acid) were administered orally.

CC1(C)CC[C@]2(C(=O)O)CC[C@]3(C)C(=CC[C@@H]4[C@@]5(C)CC[C@H](O)C(C)(C)[C@@H]5CC[C@]43C)[C@@H]2C1 [Oleanolic acid, oleanolic acid]
reduction of gastric damage (acetic acid ulceration) [1]: 73%
inhibition of gastric damage (HCl - Gastrin ulcer) [2]: about 49%
reduction of gastric damage (thermal ulceration) [3]: 59%
ED50 ([4]; rats, oral, acetic acid spasms): 55.8 mg/kg
effect on occurrence of pulmonary thrombo-embolism [5]: no effect
inhibition of the mean total ulceration score [6]: 83.5%
reduction in ulceration (glucose induced) [7]: 8%
Percentage inhibition of Aspirin induced gastric damage ([8]; 30 mg/kg): 28%
Percentage inhibition of Aspirin induced gastric damage ([8]; 100 mg/kg): 49%
Percentage inhibition of Aspirin induced gastric damage ([8]; 300 mg/kg): 69%
doses that did not cause any deaths (mice [9]): up to 4000 mg/kg
inhibition of reserpine induced gastric damage [10]: 25%
Percentage inhibition of Indomethacin induced gastric damage ([11]; 10 mg/kg): 61%
Percentage inhibition of Indomethacin induced gastric damage ([11]; 30 mg/kg): 66%
Percentage inhibition of Indomethacin induced gastric damage ([11]; 100 mg/kg): 80%
Percentage inhibition of Indomethacin induced gastric damage ([11]; 300 mg/kg): 86%
inhibiting activity against stress-induced ulceration [12]: non-significant, if any, inhibiting activity
% Inhibition of spasms ([13]; 10 mg/kg oral): 8.6%
Average No. of spasms (25 mins) ([13]; 10 mg/kg oral): 40.0
% Inhibition of spasms ([13]; 31.6 mg/kg oral): 49.4%
Average No. of spasms (25 mins) ([13]; 31.6 mg/kg oral): 22.12
% Inhibition of spasms ([13]; 100 mg/kg oral): 65.7%
Average No. of spasms (25 mins) ([13]; 100 mg/kg oral): 15.10

CC1(C)CC[C@]2(C(=O)O)CC[C@]3(C)C(=CC[C@@H]4[C@@]5(C)CC[C@H](O)C(C)(C)[C@@H]5CC[C@]43C)[C@@H]2C1 [Sodium oleanolate]
Percentage inhibition of Aspirin induced gastric damage ([8]; 30 mg/kg): 1%
Percentage inhibition of Aspirin induced gastric damage ([8]; 100 mg/kg): 30%
Percentage inhibition of Aspirin induced gastric damage ([8]; 300 mg/kg): 47%

CN/C(=N/CCSCc1nc[nH]c1C)NC#N [Cimetidine, reference compound]
inhibition of gastric damage (HCl - Gastrin ulcer) [2]: 41%

CC(=O)Oc1ccccc1C(=O)O [Aspirin]
ED50 ([4]; po): 22.3 mg/kg
effect on occurrence of pulmonary thrombo-embolism [5]: inhibits the occurrence
ED50 ([5]; read-out: ED50 (antithrombotic effect)): 41 mg/kg
LD50 (mice [14]): 1110 mg/kg
LD50 ([15]; combined): 1800 mg/kg
LD50 ([15]; females): 2100 mg/kg
% inhibition of swelling ([16]; aspirin 25 mg/kg oral (combination: plus oleanolic acid 25 mg/kg), 1.5 hrs): 12%
% inhibition of swelling ([16]; aspirin 25 mg/kg oral (combination: plus oleanolic acid 25 mg/kg), 3 hrs): 17%
% inhibition of swelling ([16]; aspirin 25 mg/kg oral (combination: plus oleanolic acid 25 mg/kg), 4.5 hrs): 11%
% inhibition of swelling ([16]; aspirin 25 mg/kg oral (combination: plus oleanolic acid 25 mg/kg), 6 hrs): 18%
% inhibition of swelling ([16]; aspirin 50 mg/kg oral (combination: plus oleanolic acid 50 mg/kg), 1.5 hrs): 18%
% inhibition of swelling ([16]; aspirin 50 mg/kg oral (combination: plus oleanolic acid 50 mg/kg), 3 hrs): 32%
% inhibition of swelling ([16]; aspirin 50 mg/kg oral (combination: plus oleanolic acid 50 mg/kg), 4.5 hrs): 17%
% inhibition of swelling ([16]; aspirin 50 mg/kg oral (combination: plus oleanolic acid 50 mg/kg), 6 hrs): 16%
% inhibition of swelling ([16]; aspirin 100 mg/kg oral (combination: plus oleanolic acid 100 mg/kg), 1.5 hrs): 30%
% inhibition of swelling ([16]; aspirin 100 mg/kg oral (combination: plus oleanolic acid 100 mg/kg), 3 hrs): 42%
% inhibition of swelling ([16]; aspirin 100 mg/kg oral (combination: plus oleanolic acid 100 mg/kg), 4.5 hrs): 32%
% inhibition of swelling ([16]; aspirin 100 mg/kg oral (combination: plus oleanolic acid 100 mg/kg), 6 hrs): 23%
% inhibition of swelling ([16]; aspirin 200 mg/kg oral (combination: plus oleanolic acid 200 mg/kg), 1.5 hrs): 45%
% inhibition of swelling ([16]; aspirin 200 mg/kg oral (combination: plus oleanolic acid 200 mg/kg), 3 hrs): 52%
% inhibition of swelling ([16]; aspirin 200 mg/kg oral (combination: plus oleanolic acid 200 mg/kg), 4.5 hrs): 34%
% inhibition of swelling ([16]; aspirin 200 mg/kg oral (combination: plus oleanolic acid 200 mg/kg), 6 hrs): 30%

CC1(C)[C@@H](O)CC[C@]2(C)[C@H]3CC=C4[C@@H]5C[C@@](C)(CO)CC[C@]5(C)CC[C@@]4(C)[C@]3(C)CC[C@@H]12 [olean-12-en-3β, 30-diol, reference compound]
inhibiting activity against stress-induced ulceration [12]: promising inhibiting activity

CC1(C)[C@@H](OC(=O)CCC(=O)O)CC[C@]2(C)[C@H]3C(=O)C=C4[C@@H]5C[C@@](C)(C(=O)O)CC[C@]5(C)CC[C@@]4(C)[C@]3(C)CC[C@@H]12 [Carbenoxolone sodium, disodium salt of the hemisuccinate of glycyrrhetinic acid, reference compound]
reduction of gastric damage (acetic acid ulceration) [1]: 42%

From patent US4752606A, “Pharmaceutical compositions and preparations thereof” (501 Noristan Limited, priority 1982, dated 1988)
